Results reported in ChEMBL document CHEMBL3045391, “Synthesis and biological evaluation of 5,7-diaryl-4,4-dimethyl-4,5,6,7-tetrahydropyridino[3,4-d]-1,2,3-thiadiazoles” (2007).
Activity calls are given as the source filed them. The rule behind the calls is not given here.

How the values were obtained:
Shigella flexneri [1] = experiment: Antibacterial activity against Shigella flexneri at 200 ppm after 24 hr by disk diffusion method; format: functional; settings: read-out: IZ
Mucor [2] = experiment: Antifungal activity against Mucor at 500 ppm after 72 to 96 hr by disk diffusion method; format: functional; settings: read-out: IZ
Salmonella typhi [3] = experiment: Antibacterial activity against Salmonella enterica subsp. enterica serovar Typhi at 100 ppm after 24 hr by disk diffusion method; format: functional; settings: read-out: IZ
Aspergillus flavus [4] = experiment: Antifungal activity against Aspergillus flavus at 100 ppm after 72 to 96 hr by disk diffusion method; format: functional; settings: read-out: IZ
Pseudomonas [5] = experiment: Antibacterial activity against Pseudomonas at 200 ppm after 24 hr by disk diffusion method; format: functional; settings: read-out: IZ
Aspergillus flavus [6] = experiment: Antifungal activity against Aspergillus flavus at 200 ppm after 72 to 96 hr by disk diffusion method; format: functional; settings: read-out: IZ
Salmonella typhi [7] = experiment: Antibacterial activity against Salmonella enterica subsp. enterica serovar Typhi at 500 ppm after 24 hr by disk diffusion method; format: functional; settings: read-out: IZ
Escherichia coli [8] = experiment: Antibacterial activity against Escherichia coli at 200 ppm after 24 hr by disk diffusion method; format: functional; settings: read-out: IZ
Mucor [9] = experiment: Antifungal activity against Mucor at 100 ppm after 72 to 96 hr by disk diffusion method; format: functional
Escherichia coli [10] = experiment: Antibacterial activity against Escherichia coli at 100 ppm after 24 hr by disk diffusion method; format: functional, organism-based
Klebsiella pneumoniae [11] = experiment: Antibacterial activity against Klebsiella pneumoniae at 100 ppm after 24 hr by disk diffusion method; format: functional; settings: read-out: IZ
Rhizopus [12] = experiment: Antifungal activity against Rhizopus at 100 ppm after 72 to 96 hr by disk diffusion method; format: functional
Mucor [13] = experiment: Antifungal activity against Mucor at 200 ppm after 72 to 96 hr by disk diffusion method; format: functional; settings: read-out: IZ
Nannizzia gypsea [14] = experiment: Antifungal activity against Microsporum gypseum at 100 ppm after 72 to 96 hr by disk diffusion method; format: functional; settings: read-out: IZ
Nannizzia gypsea [15] = experiment: Antifungal activity against Microsporum gypseum at 200 ppm after 72 to 96 hr by disk diffusion method; format: functional; settings: read-out: IZ
Klebsiella pneumoniae [16] = experiment: Antibacterial activity against Klebsiella pneumoniae at 200 ppm after 24 hr by disk diffusion method; format: functional; settings: read-out: IZ
Streptococcus [17] = experiment: Antibacterial activity against beta-hemolytic Streptococcus at 500 ppm after 24 hr by disk diffusion method; format: functional; settings: read-out: IZ
Vibrio cholerae [18] = experiment: Antibacterial activity against Vibrio cholerae at 500 ppm after 24 hr by disk diffusion method; format: functional; settings: read-out: IZ
Rhizopus [19] = experiment: Antifungal activity against Rhizopus at 200 ppm after 72 to 96 hr by disk diffusion method; format: functional; settings: read-out: IZ
Rhizopus [20] = experiment: Antifungal activity against Rhizopus at 500 ppm after 72 to 96 hr by disk diffusion method; format: functional; settings: read-out: IZ
Staphylococcus aureus [21] = experiment: Antibacterial activity against Staphylococcus aureus at 200 ppm after 24 hr by disk diffusion method; format: functional; settings: read-out: IZ
Staphylococcus aureus [22] = experiment: Antibacterial activity against Staphylococcus aureus at 500 ppm after 24 hr by disk diffusion method; format: functional; settings: read-out: IZ
Nannizzia gypsea [23] = experiment: Antifungal activity against Microsporum gypseum at 500 ppm after 72 to 96 hr by disk diffusion method; format: functional; settings: read-out: IZ
Pseudomonas [24] = experiment: Antibacterial activity against Pseudomonas at 500 ppm after 24 hr by disk diffusion method; format: functional; settings: read-out: IZ
Salmonella typhi [25] = experiment: Antibacterial activity against Salmonella enterica subsp. enterica serovar Typhi at 200 ppm after 24 hr by disk diffusion method; format: functional; settings: read-out: IZ
Shigella flexneri [26] = experiment: Antibacterial activity against Shigella flexneri at 100 ppm after 24 hr by disk diffusion method; format: functional; settings: read-out: IZ
Pseudomonas [27] = experiment: Antibacterial activity against Pseudomonas at 100 ppm after 24 hr by disk diffusion method; format: functional
Staphylococcus aureus [28] = experiment: Antibacterial activity against Staphylococcus aureus at 100 ppm after 24 hr by disk diffusion method; format: functional
Vibrio cholerae [29] = experiment: Antibacterial activity against Vibrio cholerae at 100 ppm after 24 hr by disk diffusion method; format: functional; settings: read-out: IZ
Vibrio cholerae [30] = experiment: Antibacterial activity against Vibrio cholerae at 200 ppm after 24 hr by disk diffusion method; format: functional; settings: read-out: IZ
Klebsiella pneumoniae [31] = experiment: Antibacterial activity against Klebsiella pneumoniae at 500 ppm after 24 hr by disk diffusion method; format: functional; settings: read-out: IZ
Aspergillus flavus [32] = experiment: Antifungal activity against Aspergillus flavus at 500 ppm after 72 to 96 hr by disk diffusion method; format: functional; settings: read-out: IZ
Shigella flexneri [33] = experiment: Antibacterial activity against Shigella flexneri at 500 ppm after 24 hr by disk diffusion method; format: functional; settings: read-out: IZ
Escherichia coli [34] = experiment: Antibacterial activity against Escherichia coli at 500 ppm after 24 hr by disk diffusion method; format: functional; settings: read-out: IZ
Streptococcus [35] = experiment: Antibacterial activity against beta-hemolytic Streptococcus at 200 ppm after 24 hr by disk diffusion method; format: functional; settings: read-out: IZ
Streptococcus [36] = experiment: Antibacterial activity against beta-hemolytic Streptococcus at 100 ppm after 24 hr by disk diffusion method; format: functional, organism-based

Structure (SMILES)	zone of inhibition at 200 ppm (Shigella flexneri [1]) [mm]	zone of inhibition at 500 ppm (Mucor [2]) [mm]	zone of inhibition at 100 ppm (Salmonella typhi [3]) [mm]	zone of inhibition at 100 ppm (Aspergillus flavus [4]) [mm]	zone of inhibition at 200 ppm (Pseudomonas [5]) [mm]	zone of inhibition at 200 ppm (Aspergillus flavus [6]) [mm]	zone of inhibition at 500 ppm (Salmonella typhi [7]) [mm]	zone of inhibition at 200 ppm (Escherichia coli [8]) [mm]	inhibition zone (IZ) (Escherichia coli [10])	zone of inhibition at 100 ppm (Klebsiella pneumoniae [11]) [mm]	zone of inhibition at 200 ppm (Mucor [13]) [mm]	zone of inhibition at 100 ppm (Nannizzia gypsea [14]) [mm]	zone of inhibition at 200 ppm (Nannizzia gypsea [15]) [mm]	zone of inhibition at 200 ppm (Klebsiella pneumoniae [16]) [mm]	zone of inhibition at 500 ppm (Streptococcus [17]) [mm]	zone of inhibition at 500 ppm (Vibrio cholerae [18]) [mm]	zone of inhibition at 200 ppm (Rhizopus [19]) [mm]	zone of inhibition at 500 ppm (Rhizopus [20]) [mm]	zone of inhibition at 200 ppm (Staphylococcus aureus [21]) [mm]	zone of inhibition at 500 ppm (Staphylococcus aureus [22]) [mm]	also measured
Cc1ccc(C2NC(c3ccc(C)cc3)C(C)(C)c3nnsc32)cc1 (configuration not stated)	17	17	12	12	12	12	12	12	inactive	17	17	17	22	17	30	17	17	22	22	30	inhibition zone (IZ) (Mucor [9]): inactive; zone of inhibition at 100 ppm (Rhizopus [12]; read-out: IZ): 12 mm; zone of inhibition at 500 ppm (Nannizzia gypsea [23]): 30 mm; zone of inhibition at 500 ppm (Pseudomonas [24]): 12 mm; zone of inhibition at 200 ppm (Salmonella typhi [25]): 12 mm; zone of inhibition at 100 ppm (Shigella flexneri [26]): 12 mm; inhibition zone (IZ) (Pseudomonas [27]): inactive; inhibition zone (IZ) (Staphylococcus aureus [28]): inactive; zone of inhibition at 100 ppm (Vibrio cholerae [29]): 12 mm; zone of inhibition at 200 ppm (Vibrio cholerae [30]): 17 mm; zone of inhibition at 500 ppm (Klebsiella pneumoniae [31]): 22 mm; zone of inhibition at 500 ppm (Aspergillus flavus [32]): 12 mm; zone of inhibition at 500 ppm (Shigella flexneri [33]): 17 mm; zone of inhibition at 500 ppm (Escherichia coli [34]): 17 mm; zone of inhibition at 200 ppm (Streptococcus [35]): 17 mm; inhibition zone (IZ) (Streptococcus [36]): inactive
COc1ccc(C2NC(c3ccc(OC)cc3)C(C)(C)c3nnsc32)cc1 (configuration not stated)	17	17	12	12	12	12	17	17	inactive	17	17	12	17	17	30	17	12	22	22	30	zone of inhibition at 100 ppm (Mucor [9]; read-out: IZ): 12 mm; inhibition zone (IZ) (Rhizopus [12]): inactive; zone of inhibition at 500 ppm (Nannizzia gypsea [23]): 30 mm; zone of inhibition at 500 ppm (Pseudomonas [24]): 12 mm; zone of inhibition at 200 ppm (Salmonella typhi [25]): 17 mm; zone of inhibition at 100 ppm (Shigella flexneri [26]): 12 mm; inhibition zone (IZ) (Pseudomonas [27]): inactive; zone of inhibition at 100 ppm (Staphylococcus aureus [28]; read-out: IZ): 12 mm; zone of inhibition at 100 ppm (Vibrio cholerae [29]): 12 mm; zone of inhibition at 200 ppm (Vibrio cholerae [30]): 17 mm; zone of inhibition at 500 ppm (Klebsiella pneumoniae [31]): 22 mm; zone of inhibition at 500 ppm (Aspergillus flavus [32]): 17 mm; zone of inhibition at 500 ppm (Shigella flexneri [33]): 17 mm; zone of inhibition at 500 ppm (Escherichia coli [34]): 17 mm; zone of inhibition at 200 ppm (Streptococcus [35]): 12 mm; inhibition zone (IZ) (Streptococcus [36]): inactive
